Source: publication PMC3422351, “Lipo-Endomorphin-1 Derivatives with Systemic Activity against Neuropathic Pain without Producing Constipation” (PLoS ONE, 2012)
Where two headings read alike, the source gives them in different places. Square brackets hold non-standard residues; d marks the D form. Peptide text beside a SMILES is read from it. ξ: configuration not given here. Dmt = Cc1cc(O)cc(C)c1C[C@H](N)C(=O)O; ξGly(octyl) = CCCCCCCCC(N)C(=O)O

How the values were obtained:
MOP receptor [1] = target: T1, MOP receptor (Homo sapiens, UniProt P35372); assay: Inhibition of forskolin-stimulated cAMP formation in SH-SY5Y cells; format: cell-based
T1 construct: SH-SY5Y cells, which endogenously expresses MOP and δ-opioid (DOP) receptors; host or cells: SH-SY5Y human neuroblastoma cells
T1 sequence (P35372 whole entry): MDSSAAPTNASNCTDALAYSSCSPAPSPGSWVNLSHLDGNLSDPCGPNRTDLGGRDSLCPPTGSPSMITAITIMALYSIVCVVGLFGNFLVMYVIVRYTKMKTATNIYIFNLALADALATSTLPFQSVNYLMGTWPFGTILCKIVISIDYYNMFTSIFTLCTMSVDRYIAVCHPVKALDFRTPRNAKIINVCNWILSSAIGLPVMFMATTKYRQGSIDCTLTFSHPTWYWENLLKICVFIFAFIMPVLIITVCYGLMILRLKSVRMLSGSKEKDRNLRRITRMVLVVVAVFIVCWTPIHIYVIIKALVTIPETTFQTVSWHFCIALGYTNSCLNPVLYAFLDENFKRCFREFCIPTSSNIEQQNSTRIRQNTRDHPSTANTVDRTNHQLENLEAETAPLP
Description: SH-SY5Y cells, which express MOP and DOP receptors, were seeded (10^5 cells/mL, 100 µL) in a 96-well plate and incubated overnight to reach 80% confluence. Culture medium supplemented with 30 µM forskolin was used make peptide solution (100 nM) and aliquots (100 µL) of each peptide were added to three wells. After incubation at 37°C for 30 minutes, the culture medium was removed and lysis buffer from a cAMP Biotrak EIA kit (Amersham, Buckinghamshire, UK) was added, followed by an anti-cAMP antibody. After incubation at 4°C for 2 hours, a cAMP peroxidase conjugate was added and the plate incubated for another hour at 4°C. Then, the cell lysate was incubated with a 3,3′5,5′-tetramethylbenzidine (TMB) substrate provided by the Biotrak EIA kit and finally […] sulfuric acid was added. Absorbance of each well was determined using a plate reader at 450 nm and compared with a cAMP standard curve (concentration 0–3.2 pmol). Data was represented as a percentage of the maximum cAMP response to forskolin, shown as a mean (±SEM) of three separate experiments each performed in triplicate (GraphPad Prism™ (v5.0) software).

[2] = Caco-2 cell homogenate stability assay; format: in vitro ADME, human; conditions: for half-life: human, Caco-2, pH 7.4, Caco-2 cell homogenate, mean ± SEM, read-out: t 1/2 (min, Caco-2)
Description: A suspension of 5×10^4 Caco-2 cells in 100 µL culture medium was added to the wells of a 96-well cell culture plate. Culture medium supplemented with 1% penicillin/streptomycin (100 U/mL) was changed every second day.
After 21–28 days, the cells were washed with 0.2% EDTA (2×100 µL) and Hank's Balanced Salt Solution containing 25 mM 4-(2-hydroxyethyl)-1-piperazineethanesulfonic acid (HBSS-Hepes, pH 7.4; 3×100 µL). HBSS–Hepes buffer was added to each well (100 µL), and the cells were disrupted by two one-second pulses with a Sonics Vibracell ultrasonic processor set at 60% amplitude at 130 W. The cell debris was removed by centrifugation (2000 rpm, 5 minutes) and the protein content of three wells was determined using the Bio-Rad protein assay kit, by comparison with a standard curve generated from known concentrations of bovine serum albumin. The protein content of the cell homogenate was adjusted to 0.6–0.9 mg/mL in a clean 96-well plate.
The peptides were dissolved in HBSS–Hepes buffer containing 1% DMSO (dimethyl sulfoxide), and each peptide solution (200 µM, 100 µL) was added to three wells and the plate was incubated at 37°C in a shaker at 400 rpm. At pre-selected time points (5, 10, 15, 20, 30, 40, 50, 60, and 120 min), samples (10 µL) were collected and enzymatic digestion was stopped by addition of 5 µL TFA. These samples were then diluted with water (75.5 µl) and DMSO (9.5 µL) and analyzed by LC-MS to determine the concentration of peptide remaining in the solution.
LC-MS was carried out on a Luna Phenomenex C18 column (2.0×50 mm, 5 µm) with a gradient of 100% A (0.1% formic acid in water) to 100% B (0.1% formic acid in acetonitrile/water 9∶1) over 5.5 minutes at a flow rate of 0.3 mL/min. The mass spectrometer was set to selective ion monitoring in the positive ion electrospray mode. A standard curve was generated from standards containing known peptide concentrations, and used to determine the peptide concentration in the samples.

Plasma stability assay = format: in vitro ADME; conditions: human plasma, 37°C, mean ± SEM; read-out: t 1/2 (min, Plasma)
Description: Fresh human plasma was obtained from healthy and consenting volunteers (ethics approval number: 2006000950). The peptides were dissolved in PBS containing 5% DMSO (1 mg/mL), and 300 µL aliquots were mixed with 300 µL of pre-warmed plasma and incubated at 37°C. At selected time points (5, 10, 20, 30, 40, 60, 90, and 120 min), samples (50 µL) were collected and plasma proteins precipitated by addition of acetonitrile (75 µL). After centrifugation (10,000 rpm, 10 minutes), the peptide content of the supernatant was analyzed by HPLC with a Vydac C18 column (4.6×250 mm, 5 µm) at a flow rate of 1 mL/min and a gradient of 100% A (0.1% TFA in water) to 100% B (0.1% TFA in acetonitrile/water 9∶1) over 30 minutes.

MOP receptor [3] = target: T1, MOP receptor; assay: SH-SY5Y receptor binding assay ([3H]DAMGO displacement from whole cells); conditions: DPDPE 1 µM, read-out: K iμ
Description: A suspension of SH-SY5Ycells (10^5 cells per well) was seeded into 24-well plates and incubated overnight. The cells were washed with PBS and pre-incubated with 300 µL binding buffer (50 mM Tris buffer, pH 7.4, 2% BSA). A mixture of [^3H]-DAMGO (100 µL, 15 nM), DPDPE (100 µL, 1 µM) and 100 µL aliquots of each peptide in a range of concentrations (0.1 nM to 100 µM) was added to each well and the plate was incubated at 37°C. An excess of [^3H]-DAMGO (1 µM) was used to determine non-specific binding and buffer (100 µL) was measured as the blank. After 60 minutes, the cells were washed with PBS and 1 M NaOH (0.5 mL) was used to lyse the cells. The radioactivity of the cell suspension was measured by scintillation counting (Liquid Scintillation Systems, BECKMAN LS3801, USA). Data analysis was performed using the one-site competition binding model (GraphPad Prism™ (v5.0) software).

Caco-2 cell monolayers = assay: Caco-2 cell permeability assay; format: in vitro ADME, human; conditions: for P app (×10^−7, cm/s): across Caco-2 cell monolayers, mean ± SEM; for increase in permeability (P app) compared to peptide 1: Caco-2 cell monolayers, vs 1 in the same experiment
Description: (§1) A suspension of 10^5 Caco-2 cells (100 µL) in culture medium supplemented with 1% penicillin/streptomycin (100 U/mL) was pipetted into polycarbonate cell culture inserts (pore size 0.4 µm, 6.5 mm diameter, Transwell®) in a 24-well plate, and the same medium was also added to the basolateral chamber (0.6 mL). Medium in both chambers was changed every second day.
(§2) After 21–28 days, the integrity of the tight junctions and the monolayers was assessed by measuring the transepithelial electrical resistance (TEER) using the Millicell-ERS epithelial volt-ohmmeter system (Millipore Corporation). Wells that gave TEER values of 1500–4280 (Ωcm^2) were used for the experiment.
(§3) After the initial TEER test, the Caco-2 cell monolayers were washed with HBSS-Hepes buffer (3×) and then incubated with the same buffer at 37°C. After 30 minutes the buffer was removed from the apical chamber and 100 µL aliquots of peptides, dissolved to a concentration of 200 µM in HBSS-Hepes containing 1% DMSO, were added to at least three wells. As a further test of the Caco-2 cell monolayer integrity, radiolabelled [^14C]-D-mannitol (1.80 µCi) in HBSS-Hepes buffer was added to three wells. The plates were incubated in a shaker set to 400 rpm at 37°C, and samples (0.4 mL) were collected from the basolateral chamber at 30, 90, 120 and 150 minutes and replaced with the same volume of buffer. At the end of the experiment, 50 µL were collected from the apical chamber of each well. LC-MS quantification of the peptides was performed as described in Caco-2 cell homogenate stability assay. The radioactivity of the [^14C]-D-mannitol samples was quantified by liquid scintillation counting (Liquid Scintillation Systems, BECKMAN LS3801, USA), and the apparent permeability (P app) for each compound was calculated using the following equation: [drawing 1] dC/dt steady-state rate of change in the chemical concentration (M/s) or radiochemical concentration (dpm mL/s) in the receiver chamber
(§4) Vr volume of the receiver chamber (mL)
(§5) A surface area of the cell monolayers
(§6) C0 initial concentration in the donor chamber (M or dpm/mL)

[4] = Caco-2 cell permeability assay; format: in vitro ADME, human; conditions: human, Caco-2, pH 7.4, across Caco-2 cell monolayers, mean ± SEM
Description: as §1, §2, §3, §4, §5, §6

[5] = test system: gastrointestinal transit of a charcoal meal in rats; assay: Charcoal test (gastrointestinal transit); format: in vivo, rat
Description: (§7) • Castor oil-induced diarrhea test in rats The ability of test items to inhibit castor-oil induced diarrhea as an index of constipation was assessed. Prior to the start of experimentation, drug-naive rats weighing 200–250 g were fasted for 16 h with free access to water. Individually caged rats were acclimatized for 1 h without access to food or water prior to drug or vehicle administration. […] Rats were gavaged with 1 mL of castor oil five minutes after test item or vehicle administration. Presence or absence of diarrhea was recorded every hour according to a scoring system based on the weight of feces boli and the feces consistency. Weight was scored from 0 (no feces) to 3 (>3 g of feces) and consistency was scored from 0 (normal-shape feces) to 3 (shapeless feces with large amounts of liquid). When both weight of feces and the feces consistency were scored at ≥2, diarrhea was considered to be present. • Charcoal test The charcoal test was assessed in groups of drug-naive rats to measure gastrointestinal (GI) transit. […] The total length of the small intestine from the pylorus to the ileocaecal junction as well as the most distal point of migration of the charcoal meal was measured. The percentage of the distance which the charcoal meal travelled relative to the total length of the small intestine (GI propulsion) was calculated.

[6] = test system: castor oil-induced diarrhea in rats; assay: Castor oil-induced diarrhea test in rats; format: in vivo, rat
Description: as §7

[7] = test system: CCI-rat model of neuropathic pain; assay: Antinociception in CCI-rat model of neuropathic pain (Von Frey paw withdrawal thresholds); format: in vivo; conditions: morphine i.v. at equi-effective dose, CCI-rats, p<0.001 vs vehicle
Description: Chronic constriction injury (CCI) of the sciatic nerve in the rat was used as a model of neuropathic pain and was induced according to the method of Bennett and Xie [21]. Briefly, rats were anesthetized with 3% isoflurane delivered in oxygen. A 7 mm segment of the left common sciatic nerve was exposed at mid-thigh level, proximal to the sciatic trifurcation. […] The surgical incision was closed by suturing the muscles and skin in layers. To prevent infection, topical antibiotic powder was applied to the wound. The day of CCI surgery was regarded as day 0. Rats were inspected daily considering posture of the affected hindpaw, exploring behavior, body weight, water intake, and signs of autotomy until experimentation day, which was 14 days post-surgery.
Paw withdrawal thresholds (PWT's), expressed in grams, were measured using a set of calibrated Von Frey filaments (Touch Test- North Coast, 800-821-9319). Animals were acclimatized for at least 15 min in wire mesh metabolic cages (20×20×17 cm). Von Frey filaments which delivered forces in the range 2–20 g at 2 g intervals were used according to the up-down method [20]. Filaments were applied to the plantar surface of the footpad of the hindpaw so that the filament bent slightly for 3 seconds. […]

[8] = separate experiment [d] with 1 and 3 tested together

Row | Compound | IC50 (MOP receptor [1]) [nM] | half-life ([2]; 37°C) [min] | half-life (Plasma stability assay) [min] | Ki (MOP receptor [3]; mean ± SEM) [nM] | P app (×10^−7, cm/s) (Caco-2 cell monolayers; LC/MS) | Papp A→B at 150 min, 200 µM ([4]; LC/MS) [×10⁻⁶ cm/s] | increase in permeability (P app) compared to peptide 1 (Caco-2 cell monolayers) [fold] | Papp A→B at 150 min, 200 µM [4, 8] [×10⁻⁶ cm/s] | other results
1 | Cc1cc(O)cc(C)c1C[C@H](N)C(=O)N1CCC[C@H]1C(=O)N[C@@H](Cc1c[nH]c2ccccc12)C(=O)N[C@@H](Cc1ccccc1)C(N)=O [Compound 2] | 0.3 ± 0.02 | 24.1 ± 3.6 | 4.2 ± 1.5 | 0.06 ± 0.01 | 2.5 (±0.3) ×10^−7 cm/s | 0.25 ± 0.03 | – | – | –
2 | CCCCCCCCC(N)C(=O)N[C@@H](Cc1c(C)cc(O)cc1C)C(=O)N1CCC[C@H]1C(=O)N[C@@H](Cc1c[nH]c2ccccc12)C(=O)N[C@@H](Cc1ccccc1)C(N)=O (stereo partly shown) [Compound 4] (H-[ξGly(octyl)][Dmt]PWF-NH2) | 1.3 ± 0.22 | 96.3 ± 8.3 | 41.4 ± 3.3 | 0.5 | 12.4 (±4.7) ×10^−7 cm/s | 1.24 ± 0.47 | 62 | – | increase in Caco-2 cell homogenate stability compared with parent peptide 1 ([2]; vs peptide 1 tested in the same experiment): 34 fold
3 | CCCCCCCCC(N)C(=O)N[C@@H](Cc1ccc(O)cc1)C(=O)N1CCC[C@H]1C(=O)N[C@@H](Cc1c[nH]c2ccccc12)C(=O)N[C@@H](Cc1ccccc1)C(N)=O (stereo partly shown) [Compound 3] (H-[ξGly(octyl)]YPWF-NH2) | 31.4 ± 1.45 | – | – | – | – | – | ~90 | 9.01 ± 1.22 | half-life [2, 8]: 77.4 ± 7.1 min; GI propulsion (%) ([5]; i.v. 16 µmol/kg, mean (± SEM)): 64.3 (±3.0) %; inhibition of castor oil-induced diarrhea ([6]; i.v. doses up to 16 µmol/kg, p>0.05): No significant inhibition; Ki (MOP receptor [3]; separate experiment [d] with 1 and 3, mean ± SEM): 25.7 ± 1.3 nM; P app (×10^−7, cm/s) (Caco-2 cell monolayers; [8]): 90.1 (±12.2) ×10^−7 cm/s
4 | CN1CC[C@]23c4c5ccc(O)c4O[C@H]2[C@@H](O)C=C[C@H]3[C@H]1C5 [morphine, reference compound] | – | – | – | – | – | – | – | – | antinociception in the contralateral (uninjured) hindpaw [7]: produced significant antinociceptive activity; GI propulsion (%) ([5]; i.v. 2 µmol/kg, mean ± SEM, p<0.001): 29.5±4.6%; inhibition of castor oil-induced diarrhea ([6]; i.v. 2 µmol/kg, p<0.001): inhibited castor oil-induced diarrhea significantly
5 | NC(=O)[C@H](Cc1ccccc1)NC(=O)[C@H](Cc1c[nH]c2ccccc12)NC(=O)[C@@H]1CCCN1C(=O)[C@@H](N)Cc1ccc(O)cc1 [Compound 1, Tyr-Pro-Trp-Phe-NH2, reference compound] | – | – | – | – | 0.2 (±0.02) ×10^−7 cm/s | 0.02 ± 0.002 | – | 0.1 ± 0.034 | –
